#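 Interpolation was linear, between the two tested concentrations surrounding the appropriate level; five concentrations were tested over 48 hours in 96-well plates. At the GI50, growth is halved.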 The source made the active and inactive calls. Rule as the data show it: active = GI50 up to about 1.1 µM and inactive = higher.
# Columns and labels:
# Test in all cases: inhibition of tumour cell growth, NCI panel, 48 h
# KM12 = test system: KM12
# SF-295 = test system: SF-295
# IGROV-1 = test system: IGROV-1
# UACC-62 = test system: UACC-62
# K562 = test system: K562
# HOP-62 = test system: HOP-62
# UACC-257 = test system: UACC-257
# 786-0 = test system: 786-0
# SNB-19 = test system: SNB-19
# A549 = test system: A549
# SK-OV-3 = test system: SK-OV-3
# U-251 = test system: U-251
# OVCAR-5 = test system: OVCAR-5
# HCT-116 = test system: HCT-116
# SK-MEL-2 = test system: SK-MEL-2
# M14 = test system: M14
# HOP-92 = test system: HOP-92
# COLO 205 = test system: COLO 205
# OVCAR-3 = test system: OVCAR-3
# HCT-15 = test system: HCT-15
SMILES,GI50 (KM12),GI50 (SF-295),GI50 (IGROV-1),GI50 (UACC-62),GI50 (K562),GI50 (HOP-62),GI50 (UACC-257),GI50 (786-0),GI50 (SNB-19),GI50 (A549),GI50 (SK-OV-3),GI50 (U-251),GI50 (OVCAR-5),GI50 (HCT-116),GI50 (SK-MEL-2),GI50 (M14),GI50 (HOP-92),GI50 (COLO 205),GI50 (OVCAR-3),GI50 (HCT-15) [µM]
COC(=O)C1c2c(c3ccccc3n2C(=O)OC)CCN2CCC1C(S(=O)(=O)c1ccccc1)C2=O (centres undefined),> 100 µM (inactive),> 100 µM (inactive),> 100 µM (inactive),> 100 µM (inactive),> 100 µM (inactive),70.3 µM (inactive),> 100 µM (inactive),> 100 µM (inactive),94.6 µM (inactive),> 100 µM (inactive),> 100 µM (inactive),> 100 µM (inactive),> 100 µM (inactive),> 100 µM (inactive),> 100 µM (inactive),> 100 µM (inactive),> 100 µM (inactive),> 100 µM (inactive),> 100 µM (inactive),> 100
COc1ccc2c(c1OC)C(=O)N1C2=Cc2c(cc3c(c2OC)OCO3)CC1N(C)C (centres undefined),34 µM (inactive),50.8 µM (inactive),> 100 µM (inactive),27.5 µM (inactive),30.3 µM (inactive),45.9 µM (inactive),88.3 µM (inactive),> 100 µM (inactive),> 100 µM (inactive),47.4 µM (inactive),87.7 µM (inactive),49.4 µM (inactive),> 100 µM (inactive),35.3 µM (inactive),36.2 µM (inactive),66.7 µM (inactive),30.3 µM (inactive),58.2 µM (inactive),40.6 µM (inactive),36.5
C[C@@H]1C[C@H]2CC[C@H](O2)[C@H](C)C(=O)O[C@@H](C)C[C@@H]2CC[C@@H](O2)[C@@H](C)C(=O)O[C@H](C)C[C@H]2CC[C@H](O2)[C@H](C)C(=O)O[C@@H](C)C[C@@H]2CC[C@@H](O2)[C@@H](C)C(=O)O1,0.256 µM (active),0.242 µM (active),0.34 µM (active),0.351 µM (active),0.228 µM (active),0.319 µM (active),0.242 µM (active),0.445 µM (active),0.366 µM (active),0.344 µM (active),0.2 µM (active),0.366 µM (active),0.568 µM (active),0.315 µM (active),0.245 µM (active),0.434 µM (active),0.183 µM (active),0.155 µM (active),0.073 µM (active),0.646
COc1ccc2[nH]c3c(C)c4cnccc4c(C)c3c2c1,1.31 µM (inactive),3.3 µM (inactive),3.85 µM (inactive),> 10 µM (inactive),2.4 µM (inactive),1.43 µM (inactive),4.07 µM (inactive),0.424 µM (active),> 10 µM (inactive),1.85 µM (inactive),> 10 µM (inactive),1.72 µM (inactive),3.11 µM (inactive),1.25 µM (inactive),5.14 µM (inactive),1.26 µM (inactive),5.4 µM (inactive),1.58 µM (inactive),1.14 µM (inactive),1.61
COc1cc(/C=C/c2cc(=O)cc(/C=C/c3ccc(O)c(OC)c3)o2)ccc1O,> 38.3 µM (inactive),32.4 µM (inactive),> 100 µM (inactive),44.1 µM (inactive),> 21 µM (inactive),22 µM (inactive),> 100 µM (inactive),23.3 µM (inactive),> 92 µM (inactive),64.1 µM (inactive),76.4 µM (inactive),25.5 µM (inactive),> 100 µM (inactive),> 55.5 µM (inactive),41.2 µM (inactive),> 100 µM (inactive),17.9 µM (inactive),> 100 µM (inactive),76.4 µM (inactive),60.4
CC1(C)OC2OC(COC(=O)C=[N+]=[N-])C3OC(C)(C)OC3C2O1 (centres undefined),> 100 µM (inactive),> 100 µM (inactive),> 100 µM (inactive),> 100 µM (inactive),> 100 µM (inactive),> 100 µM (inactive),> 100 µM (inactive),> 100 µM (inactive),> 100 µM (inactive),–,> 100 µM (inactive),> 100 µM (inactive),> 100 µM (inactive),> 100 µM (inactive),> 100 µM (inactive),–,> 100 µM (inactive),> 100 µM (inactive),> 100 µM (inactive),> 100
CC[C@@]1(O)C(=O)OCc2c1cc1n(c2=O)Cc2c-1nc1ccccc1c2/C=N\NC(=O)C(N)Cc1c[nH]c2ccccc12 (some centres undefined),2.84 µM (inactive),0.0887 µM (active),2.86 µM (inactive),0.0528 µM (active),0.239 µM (active),0.0556 µM (active),1.96 µM (inactive),0.108 µM (active),< 0.0198 µM (active),0.301 µM (active),0.49 µM (active),0.0502 µM (active),13.1 µM (inactive),0.392 µM (active),5.93 µM (inactive),0.332 µM (active),3.8 µM (inactive),18.2 µM (inactive),5.14 µM (inactive),–
Cc1cc(NS(=O)(=O)c2ccc(/N=[N+](\[O-])c3ccc(S(=O)(=O)Nc4cc(C)on4)cc3)cc2)no1,–,> 100 µM (inactive),> 100 µM (inactive),> 100 µM (inactive),> 100 µM (inactive),> 100 µM (inactive),> 100 µM (inactive),> 100 µM (inactive),> 100 µM (inactive),> 100 µM (inactive),> 100 µM (inactive),> 100 µM (inactive),> 100 µM (inactive),> 100 µM (inactive),> 100 µM (inactive),> 100 µM (inactive),> 100 µM (inactive),> 100 µM (inactive),> 100 µM (inactive),> 100
Cc1cccc(C(=O)c2cccc3ccccc23)c1C(=O)O,–,> 100 µM (inactive),> 100 µM (inactive),> 100 µM (inactive),> 100 µM (inactive),> 100 µM (inactive),> 100 µM (inactive),> 100 µM (inactive),> 100 µM (inactive),> 100 µM (inactive),39.1 µM (inactive),> 100 µM (inactive),> 100 µM (inactive),> 100 µM (inactive),> 100 µM (inactive),> 100 µM (inactive),> 100 µM (inactive),23.3 µM (inactive),> 100 µM (inactive),> 100
C=C(N=[N+]=[N-])c1cn(C2CC(O)C(CO)O2)c(=O)[nH]c1=O (centres undefined),> 100 µM (inactive),> 100 µM (inactive),> 100 µM (inactive),> 100 µM (inactive),> 100 µM (inactive),> 100 µM (inactive),–,> 100 µM (inactive),> 100 µM (inactive),> 100 µM (inactive),> 100 µM (inactive),> 100 µM (inactive),> 100 µM (inactive),> 100 µM (inactive),> 100 µM (inactive),> 100 µM (inactive),> 100 µM (inactive),> 100 µM (inactive),> 100 µM (inactive),> 100

# — ChEMBL document CHEMBL1201862, “PubChem BioAssay data set” (2004)
